# Patent US20240350589A1, “IL-2/IL-15RBETAGAMMA AGONIST COMBINATION WITH ANTIBODY-DRUG CONJUGATES FOR TREATING CANCER” (Cytune Pharma, priority 2021, published 2024)
# Entries after “also recorded” stand apart in the source; their conditions may differ.
# Tests used:
# AGS tumor cell line [1] = assay: In vitro killing of AGS tumor cells, AnnexinV/DAPI flow cytometry; format: cell-based, human; conditions: doxorubicin 1.2 μM or cisplatin 100 μM 48 h; Kadcyla 7 μg/ml 72 h
# AGS tumor cell line [2] = assay: Cell surface exposure of ICD markers CRT, HSP70, HSP90 on early apoptotic AGS cells (flow cytometry); format: cell-based, human; conditions: doxorubicin 1.2 μM, cisplatin 100 μM 48 h vs Kadcyla 7 μg/ml 72 h
# Description: The cells are collected and washed twice with PBS. The cells are then incubated for 30 min with primary antibody diluted in cold blocking buffer (2% fetal bovine serum in PBS), followed by washing and incubation with an […] monoclonal secondary antibody in blocking solution. Each sample was then analyzed using a FACScan Aria (BD Bioscience). Cell surface expression of HSP70, HSP90 and CRT is analyzed on non-permeabilized annexin V-positive/DAPI-negative cells.
# The expression of ICD markers Hsp70, Hsp90 and CRT as well as NK cells ligands was measured by flow cytometry on these early apoptotic (AnnexinV^+/DAPI^−) cell populations using anti-calreticulin antibody (Abcam, USA), anti-HSP70 (R&D Systems, USA), anti-HSP90 (Enzo Life Sciences, USA). APC AffiniPure F(ab′)2 Fragment Goat Anti-Mouse (Jackson ImmunoResearch) was used as a secondary antibody.
# huHER2/EMT-6 tumors = assay: Orthotopic huHER2/EMT-6 breast cancer model in vivo; set-up: species or system Balb/c AnN mice; conditions: RLI-15 1 mg/kg s.c. days 15-18, Kadcyla 15 mg/kg i.v. days 0 and 7
# Description: The study was initiated when the initial mean tumor volume among individual groups reached 140 mm^3. […] RLI-15 was administered in 4 sequential doses on study days 15-18 to amplify the numbers and activate immune cells. The antitumor efficacy was evaluated on the level of absolute tumor volume change. Safety has been monitored by body weight loss in individual animals. HER2 expression in individual tumors was analyzed using HercepTest™ (Dako) at the endpoint to map for potential heterogeneity of the model (staining was performed according to the instructions given by the manufacturer).
# [3] = system: CD3-CD56+ cells (NK cells) of human PBMCs; assay: In vitro activation of NK cells: RLI-15 treated PBMCs co-incubated with treated AGS tumor cells; format: cell-based
# Description: As controls non-treated tumor cells were incubated with non-treated PBMC (KadNT in the ADC group) and non-treated tumor cells were incubated with RLI-15 treated PBMC (KadNT in the RLI+ADC group).
# [4] = in vivo; cited from earlier work
compound,measurement,setting,value
N.N.[Cl][Pt][Cl] [cisplatin],induction of early apoptosis compared with Kadcyla,AGS tumor cell line [1],equally
same,mean fluorescent intensity (MFI) of ICD markers compared with Kadcyla,AGS tumor cell line [2],stronger induction
COc1cccc2c1C(=O)c1c(O)c3c(c(O)c1C2=O)C[C@@](O)(C(=O)CO)C[C@@H]3O[C@H]1C[C@H](N)[C@H](O)[C@H](C)O1 [doxorubicin],induction of early apoptosis compared with Kadcyla,AGS tumor cell line [1],even better suitable to induce early apoptosis
same,mean fluorescent intensity (MFI) of ICD markers compared with Kadcyla,AGS tumor cell line [2],about equal
RLI-15: receptor-linker-interleukin fusion protein of the human IL-15Rα sushi+ fragment with the human IL-15 (SEQ ID NO: 9),tumor volume at the end of the study,huHER2/EMT-6 tumors,intermediate tumor volume increase
same,complete tumor eradication / complete and durable responses,huHER2/EMT-6 tumors; groups of 8 mice,2 out of 8
same,proliferation of CD3-CD56+ NK cells,"[3]; PBMCs +/- 2.5 ng/ml RLI-15 72 h, AGS cells +/- Kadcyla 72 h, 10:1, 4 h",increase of total number of CD3−CD56^+ cells; also recorded: strong proliferation; also recorded: increase of total number of CD3^−CD56^+ cells
same,% of IFNγ+ NK cells,"[3]; PBMCs +/- 2.5 ng/ml RLI-15 72 h, AGS cells treated with Kadcyla 5-10 μg/ml 72 h, 10:1, 4 h",only moderate
same,"% of CD107a+ cells, KadNT group",[3]; RLI-15 treated PBMC with non-treated tumor cells,< 40%
Todelvy,half-life,[4],16 h
